According to publication PMC2779710 (Journal of medicinal chemistry, 2009):
Positions of bridges follow the written chain, without caps; N, C: chain ends. Non-standard residues stand in square brackets, D forms with d. Residues, ends and D or L forms follow the SMILES beside them. Phe(4-CH2NHiPr) = CC(C)NCc1ccc(C[C@H](N)C(=O)O)cc1

Legend:
human sst1 receptor = human sst1 receptor (Homo sapiens, UniProt P30872); test: Luciferase reporter gene assay in CCL39-sst1-Luci cells; conditions: for Luciferase Assay (agonist/antagonist property): CCL39-sst1-Luci cells, 0.1 nM to 1 μM, 5 h
human sst1 receptor, sequence (P30872 whole entry): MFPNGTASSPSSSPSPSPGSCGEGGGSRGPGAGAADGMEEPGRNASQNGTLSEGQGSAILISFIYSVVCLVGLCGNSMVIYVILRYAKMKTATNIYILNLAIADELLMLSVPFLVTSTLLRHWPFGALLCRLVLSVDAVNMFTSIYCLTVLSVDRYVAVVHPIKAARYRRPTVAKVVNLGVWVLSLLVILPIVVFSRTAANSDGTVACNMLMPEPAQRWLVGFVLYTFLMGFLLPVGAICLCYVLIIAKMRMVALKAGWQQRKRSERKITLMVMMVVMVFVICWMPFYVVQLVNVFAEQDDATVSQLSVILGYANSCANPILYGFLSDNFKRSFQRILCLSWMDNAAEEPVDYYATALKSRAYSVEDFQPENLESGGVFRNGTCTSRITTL

SRIF receptor = conditions: cited from earlier work

| SMILES | Luciferase Assay (agonist/antagonist property) (human sst1 receptor) | less potent than SRIF or 25 in luciferase reporter gene assay (human sst1 receptor; EC50 comparison) | binding affinity to any SRIF receptor (SRIF receptor) |
| --- | --- | --- | --- |
| CC(C)NCc1ccc(C[C@@H]2NC(=O)[C@@H](N(C)C(=O)c3ccc4ccccc4c3)NC(=O)[C@H](Cc3ccccc3)NC(=O)[C@@H](N)CSSC[C@@H](C(=O)N[C@H](C(N)=O)[C@@H](C)O)NC(=O)[C@H](Cc3ccccc3)NC2=O)cc1 [Compound 23, des-AA^1,2,4-6,10,12,13-[DAgl(NMe,2naphthoyl)^8,IAmp^9]-SRIF-Thr-NH2] | agonist | – | – |
| CC(C)NCc1ccc(C[C@@H]2NC(=O)[C@@H](Cc3c[nH]c4ccccc34)NC(=O)[C@H](Cc3ccccc3)NC(=O)[C@H](Cc3ccccc3)NC(=O)[C@@H](N)CSSC[C@@H](C(=O)O)NC(=O)[C@H](Cc3ccccc3)NC(=O)[C@H]([C@@H](C)O)NC2=O)cc1 [Compound 9, des-AA^1,2,4,5,12,13-[DTrp^8, IAmp^9]-SRIF] (H-CFF[dW][Phe(4-CH2NHiPr)]TFC-OH; disulfide 1-8 (inferred)) | – | – | no binding affinity |
| CC(C)NCc1ccc(C[C@@H]2NC(=O)[C@@H](N(C)C(=O)c3ccc4ccccc4c3)NC(=O)[C@H](Cc3ccccc3)NC(=O)[C@@H](NC(=O)[C@H](N)Cc3ccc(O)cc3)CSSC[C@@H](C(=O)N[C@H](C(N)=O)[C@@H](C)O)NC(=O)[C@H](Cc3ccccc3)NC2=O)cc1 [Compound 25, des-AA^1,4-6,10,12,13-[DTyr^2,DAgl(NMe,2naphthoyl)^8,IAmp^9]-SRIF-Thr-NH2] | potent sst1 agonist | – | – |

Continued, in another order:

| Luciferase Assay (agonist/antagonist property) (human sst1 receptor) | less potent than SRIF or 25 in luciferase reporter gene assay (human sst1 receptor; EC50 comparison) | SMILES | binding affinity to any SRIF receptor (SRIF receptor) |
| --- | --- | --- | --- |
| agonist | – | CC(C)NCc1ccc(C[C@@H]2NC(=O)[C@@H](N(C)C(=O)c3ccc4ccccc4c3)NC(=O)[C@H](Cc3ccccc3)NC(=O)[C@@H](N)CSSC[C@@H](C(N)=O)NC(=O)[C@H](Cc3ccc(O)cc3)NC2=O)cc1 [Compound 27, des-AA^1,2,4-6,10,12,13-[DAgl(NMe,2naphthoyl)^8,IAmp^9,Tyr^11]-SRIF-NH2] | – |
| agonist | approximately 100 fold | CC(C)NCc1ccc(C[C@@H]2NC(=O)[C@@H](Cc3c[nH]c4ccccc34)NC(=O)[C@H](Cc3ccccc3)NC(=O)[C@H](Cc3ccccc3)NC(=O)[C@H](CCCCN)NC(=O)[C@@H](NC(=O)[C@@H](N)Cc3ccc(O)cc3)CSSC[C@@H](C(=O)O)NC(=O)[C@H](CO)NC(=O)[C@H]([C@@H](C)O)NC(=O)[C@H](Cc3ccccc3)NC(=O)[C@H]([C@@H](C)O)NC2=O)cc1 [Compound 33, reference compound] (H-YCKFF[dW][Phe(4-CH2NHiPr)]TFTSC-OH; disulfide 2-12 (inferred)) | – |
| agonist | – | CC(C)NCc1ccc(C[C@@H]2NC(=O)[C@@H](N(C)C(=O)c3ccc4ccccc4c3)NC(=O)[C@H](Cc3ccccc3)NC(=O)[C@H](N)CSSC[C@@H](C(=O)N[C@@H](Cc3ccc4ccccc4c3)C(N)=O)NC(=O)[C@H](Cc3ccccc3)NC2=O)cc1 [Compound 29, des-AA^1,2,4-6,10,12,13-[DCys^3,DAgl(NMe,2naphthoyl)^8,IAmp^9]-SRIF-2Nal-NH2] | – |
